Key:
[1] = system: Phakopsora pachyrhizi; test: Fungicidal activity against Phakopsora pachyrhizi, soybean, leaf disc preventative (Asian soybean rust); type: in vivo; conditions: foliar, 288 h, 12-14 days after application, compared to untreated control
Protocol: Leaf disks or leaf segments of various plant species are cut from plants grown in a greenhouse. The cut leaf disks or segments are placed in multiwell plates (24-well format) onto water agar. The leaf disks are sprayed with a test solution before (preventative) or after (curative) inoculation. Compounds to be tested are prepared as DMSO solutions (max. 10 mg/ml) which are diluted to the appropriate concentration with 0.025% Tween20 just before spraying. The inoculated leaf disks or segments are incubated under defined conditions (temperature, relative humidity, light, etc.) according to the respective test system. A single evaluation of disease level is carried out 3 to 14 days after inoculation, depending on the pathosystem. Percent disease control relative to the untreated check leaf disks or segments is then calculated. Soybean leaf disks are placed on water agar in multiwell plates (24-well format) and sprayed with the formulated test compound diluted in water. One day after application leaf discs are inoculated by spraying a spore suspension on the lower leaf surface. After an incubation period in a climate cabinet of 24-36 hours in darkness at 20° C. and 75% rh leaf disc are kept at 20° C. with 12 h light/day and 75% rh. The activity of a compound is assessed as percent disease control compared to untreated when an appropriate level of disease damage appears in untreated check leaf disks (12-14 days after application).

[2] = system: Puccinia recondita f. sp. tritici; test: Fungicidal activity against Puccinia recondita f. sp. tritici, wheat, leaf disc curative (brown rust); type: in vivo; conditions: foliar, 144 h, wheat leaf segments, curative (applied 1 day after inoculation), 6-8 days after application, compared to untreated control
Summary of the method: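 Wheat cv. Kanzler leaf segments on agar, inoculated with brown rust spores and kept dark at 19 °C, 75% rh; formulated compound sprayed 1 day after inoculation (curative). Incubated 19 °C, 75% rh, 12 h light/dark; percent disease control vs untreated scored 6–8 days after application.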

[3] = system: Glomerella lagenarium (Colletotrichum lagenarium); test: Fungicidal activity against Glomerella lagenarium (Colletotrichum lagenarium), liquid culture, cucumber, preventative (anthracnose); type: cell-based; conditions: Colletotrichum orbiculare, liquid culture (PDB), growth inhibition measured photometrically 3-4 days after application, compared to untreated control
Summary of the method: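 Glomerella lagenarium conidia in potato dextrose broth were exposed in 96-well plates to test compound diluted from DMSO stock with 0.025% Tween20 and incubated at 24 °C. Growth inhibition was read photometrically 3–4 days after application, as percent activity relative to untreated check.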

[4] = system: Puccinia recondita f. sp. tritici; test: Fungicidal activity against Puccinia recondita f. sp. tritici, wheat, leaf disc preventative (brown rust); type: in vivo; conditions: foliar, wheat leaf segments, preventative (inoculated 1 day after application), 7-9 days after application, compared to untreated control
Summary of the method: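 Wheat cv. Kanzler leaf segments on water agar sprayed with compound (DMSO stock diluted in water), then inoculated with spore suspension 1 day later. Incubated at 19 °C, 75% rh, 12 h light/12 h dark; percent disease control versus untreated scored at 7-9 days after application.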

melting point [°C]	SMILES	pest or weed control at 200 ppm [1] [%]	pest or weed control at 200 ppm [2] [%]	inhibition of growth at 20 ppm [3] [%]	pest or weed control at 200 ppm [4] [%]
80 to 89	O=C1CCCCN1Cc1ccc(-c2noc(C(F)(F)F)n2)nc1 [Compound A-53, 1-[[6-[5-(trifluoromethyl)-1,2,4-oxadiazol-3-yl]-3-pyridyl]methyl]piperidin-2-one]	–	≥ 80	–	≥ 80
89 to 92	CCOC(=O)N1CC(=O)N(Cc2ccc(-c3noc(C(F)(F)F)n3)cc2)C(=O)C1 [Compound A-57, ethyl 3,5-dioxo-4-[[4-[5-(trifluoromethyl)-1,2,4-oxadiazol-3-yl]phenyl]methyl]piperazine-1-carboxylate]	≥ 80	–	≥ 80	≥ 80
148 to 153	CNC(=O)N1CC(=O)N(Cc2ccc(-c3noc(C(F)(F)F)n3)cc2)C(=O)C1 [Compound A-58, N-methyl-3,5-dioxo-4-[[4-[5-(trifluoromethyl)-1,2,4-oxadiazol-3-yl]phenyl]methyl]piperazine-1-carboxamide]	≥ 80	–	≥ 80	≥ 80
94 to 102	CC(C)(C)OC(=O)N1CC(=O)N(Cc2ccc(-c3noc(C(F)(F)F)n3)cc2)C(=O)C1 [Compound A-62, tert-butyl 3,5-dioxo-4-[[4-[5-(trifluoromethyl)-1,2,4-oxadiazol-3-yl]phenyl]methyl]piperazine-1-carboxylate]	–	–	≥ 80	≥ 80
200 to 203	O=C1CNC(=O)N1Cc1ccc(-c2noc(C(F)(F)F)n2)cc1 [Compound A-65, 3-[[4-[5-(trifluoromethyl)-1,2,4-oxadiazol-3-yl]phenyl]methyl]imidazolidine-2,4-dione]	≥ 80	–	≥ 80	≥ 80
75 to 80	O=C1CCON1Cc1c(F)cc(-c2noc(C(F)(F)F)n2)cc1F [Compound A-67, 2-[[2,6-difluoro-4-[5-(trifluoromethyl)-1,2,4-oxadiazol-3-yl]phenyl]methyl]isoxazolidin-3-one]	≥ 80	≥ 80	≥ 80	–
80 to 84	O=C1CCCCCN1Cc1ccc(-c2noc(C(F)(F)F)n2)c(F)c1 [Compound A-69, 1-[[3-fluoro-4-[5-(trifluoromethyl)-1,2,4-oxadiazol-3-yl]phenyl]methyl]azepan-2-one]	–	–	≥ 80	≥ 80
185 to 190	CON1CCN(c2ccc(-c3noc(C(F)(F)F)n3)cc2)C1=O [Compound C-3, 1-methoxy-3-[4-[5-(trifluoromethyl)-1,2,4-oxadiazol-3-yl]phenyl]imidazolidin-2-one]	–	–	≥ 80	–

The remaining lines, values behind:

SMILES	melting point [°C]	pest or weed control at 200 ppm [1] [%]	pest or weed control at 200 ppm [2] [%]	inhibition of growth at 20 ppm [3] [%]	pest or weed control at 200 ppm [4] [%]
O=C1CCON1Cc1ccc(-c2noc(C(F)(F)F)n2)cc1 [Compound A-5, 2-[[4-[5-(trifluoromethyl)-1,2,4-oxadiazol-3-yl]phenyl]methyl]isoxazolidin-3-one]	54 to 58	≥ 80	≥ 80	≥ 80	≥ 80
CC1CCN(Cc2ccc(-c3noc(C(F)(F)F)n3)cc2)C1=O (centres unmarked) [Compound A-7, 3-methyl-1-[[4-[5-(trifluoromethyl)-1,2,4-oxadiazol-3-yl]phenyl]methyl]pyrrolidin-2-one]	83 to 88	≥ 80	≥ 80	≥ 80	≥ 80
O=C1C2C=CC(C2)N1Cc1ccc(-c2noc(C(F)(F)F)n2)cc1 (centres unmarked) [Compound A-9, 3-[[4-[5-(trifluoromethyl)-1,2,4-oxadiazol-3-yl]phenyl]methyl]-3-azabicyclo[2.2.1]hept-5-en-2-one]	50 to 53	≥ 80	≥ 80	≥ 80	≥ 80
O=C1CCCN1Cc1ccc(-c2noc(C(F)(F)F)n2)cc1F [Compound A-22, 1-[[2-fluoro-4-[5-(trifluoromethyl)-1,2,4-oxadiazol-3-yl]phenyl]methyl]pyrrolidin-2-one]	55 to 60	≥ 80	≥ 80	≥ 80	≥ 80
CN1CC(=O)N(Cc2ccc(-c3noc(C(F)(F)F)n3)cc2)CC1=O [Compound A-26, 1-methyl-4-[[4-[5-(trifluoromethyl)-1,2,4-oxadiazol-3-yl]phenyl]methyl]piperazine-2,5-dione]	134 to 142	≥ 80	≥ 80	≥ 80	≥ 80
CC(C)(C)OC(=O)N1CCN(Cc2ccc(-c3noc(C(F)(F)F)n3)cc2)C(=O)C1 [Compound A-30, tert-butyl 3-oxo-4-[[4-[5-(trifluoromethyl)-1,2,4-oxadiazol-3-yl]phenyl]methyl]piperazine-1-carboxylate]	96 to 99	–	≥ 80	≥ 80	≥ 80
CNC(=O)N1CCN(Cc2ccc(-c3noc(C(F)(F)F)n3)cc2)C(=O)C1 [Compound A-33, N-methyl-3-oxo-4-[[4-[5-(trifluoromethyl)-1,2,4-oxadiazol-3-yl]phenyl]methyl]piperazine-1-carboxamide]	114 to 118	≥ 80	≥ 80	≥ 80	≥ 80
CN(C)C(=O)N1CCN(Cc2ccc(-c3noc(C(F)(F)F)n3)cc2)C(=O)C1 [Compound A-34, N,N-dimethyl-3-oxo-4-[[4-[5-(trifluoromethyl)-1,2,4-oxadiazol-3-yl]phenyl]methyl]piperazine-1-carboxamide]	111 to 114	≥ 80	≥ 80	≥ 80	≥ 80
COCCNC(=O)N1CCN(Cc2ccc(-c3noc(C(F)(F)F)n3)cc2)C(=O)C1 [Compound A-38, N-(2-methoxyethyl)-3-oxo-4-[[4-[5-(trifluoromethyl)-1,2,4-oxadiazol-3-yl]phenyl]methyl]piperazine-1-carboxamide]	120 to 128	≥ 80	≥ 80	–	≥ 80
CN1CC(=O)N(Cc2ccc(-c3noc(C(F)(F)F)n3)cc2)C1=O [Compound A-50, 1-methyl-3-[[4-[5-(trifluoromethyl)-1,2,4-oxadiazol-3-yl]phenyl]methyl]imidazolidine-2,4-dione]	–	≥ 80	≥ 80	≥ 80	≥ 80
O=C1CCON1Cc1ccc(-c2noc(C(F)(F)F)n2)c(F)c1F [Compound A-66, 2-[[2,3-difluoro-4-[5-(trifluoromethyl)-1,2,4-oxadiazol-3-yl]phenyl]methyl]isoxazolidin-3-one]	–	≥ 80	≥ 80	≥ 80	≥ 80
O=C1CCCCCN1Cc1ccc(-c2noc(C(F)(F)F)n2)cc1 [Compound A-70, 1-[[4-[5-(trifluoromethyl)-1,2,4-oxadiazol-3-yl]phenyl]methyl]azepan-2-one]	–	≥ 80	≥ 80	≥ 80	≥ 80
O=S1(=O)CCCN1c1ccc(-c2noc(C(F)(F)F)n2)cc1 [Compound D-1, 2-[4-[5-(trifluoromethyl)-1,2,4-oxadiazol-3-yl]phenyl]-1,2-thiazolidine 1,1-dioxide]	–	≥ 80	≥ 80	≥ 80	≥ 80

Reference: patent US10640497B2, “Microbiocidal oxadiazole derivatives” (SYNGENTA PARTICIPATIONS AG, priority 2015, dated 2020)
